From patent US12344600B2, “c-Myc mRNA translation modulators and uses thereof in the treatment of cancer” (Anima Biotech Inc., priority 2022, dated 2025)

test system: c-Myc; assay: c-Myc immunofluorescence assay; type: cell-based, human; details: A549 cells, 24 hours, anti-c-Myc immunofluorescence
Procedure, shortened: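 Read-out is imaged c-Myc immunofluorescence, nucleus-segmented, in A549 lung carcinoma cells exposed to compound dose series for 24 h after 48 h growth. Fixation 4% paraformaldehyde, Triton permeabilization, antibody staining at room temperature; EC50 from logistic fit of signal versus concentration.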

Structure (SMILES) | Myc Efficacy (−LogEC50)
COc1ccc(-c2noc(N3CCC(C(=O)NCC4CCN(C5CCOC5)C4)CC3)n2)cc1 (stereo not drawn) [Compound 370, 1-(3-(4-methoxyphenyl)-1,2,4-oxadiazol-5-yl)-N-((1-(tetrahydrofuran-3-yl)pyrrolidin-3-yl)methyl)piperidine-4-carboxamide] | + (+ >3 and <5)
COc1ccc(-c2noc(N3CCC(C(=O)NCC4CCN(CC5(C)COC5)C4)CC3)n2)cc1 (stereo not drawn) [Compound 371, 1-(3-(4-methoxyphenyl)-1,2,4-oxadiazol-5-yl)-N-((1-((3-methyloxetan-3-yl)methyl)pyrrolidin-3-yl)methyl)piperidine-4-carboxamide] | + (+ >3 and <5)
COc1ccc(-c2noc(N3CCC(C(=O)NCC4CCN(Cc5cccs5)C4)CC3)n2)cc1 (stereo not drawn) [Compound 372, 1-(3-(4-methoxyphenyl)-1,2,4-oxadiazol-5-yl)-N-((1-(thiophen-2-ylmethyl)pyrrolidin-3-yl)methyl)piperidine-4-carboxamide] | ++ (++ ≥5 and <6)
COc1ccc(-c2noc(N3CCC(C(=O)NCC4CCN(Cc5cnsc5)C4)CC3)n2)cc1 (stereo not drawn) [Compound 373, N-((1-(isothiazol-4-ylmethyl)pyrrolidin-3-yl)methyl)-1-(3-(4-methoxyphenyl)-1,2,4-oxadiazol-5-yl)piperidine-4-carboxamide] | ++ (++ ≥5 and <6)
COc1ccc(-c2noc(N3CCC(C(=O)NCC4CCN(CC(C)C)C4)CC3)n2)cc1 (stereo not drawn) [Compound 374, N-((1-isobutylpyrrolidin-3-yl)methyl)-1-(3-(4-methoxyphenyl)-1,2,4-oxadiazol-5-yl)piperidine-4-carboxamide] | + (+ >3 and <5)
COc1ccc(-c2noc(N3CCC(C(=O)NCC4CCN(CC5CCCOC5)C4)CC3)n2)cc1 (stereo not drawn) [Compound 375, 1-(3-(4-methoxyphenyl)-1,2,4-oxadiazol-5-yl)-N-((1-((tetrahydro-2H-pyran-3-yl)methyl)pyrrolidin-3-yl)methyl)piperidine-4-carboxamide] | ++ (++ ≥5 and <6)
CCN1CCC(CNC(=O)C2CCN(c3nc(-c4ccc(OC)cc4)no3)CC2)C1 (stereo not drawn) [Compound 376, N-((1-ethylpyrrolidin-3-yl)methyl)-1-(3-(4-methoxyphenyl)-1,2,4-oxadiazol-5-yl)piperidine-4-carboxamide] | − (− ≤3)
COc1ccc(-c2noc(N3CCC(C(=O)NCC4CCN(CC5(C)CCOCC5)C4)CC3)n2)cc1 (stereo not drawn) [Compound 377, 1-(3-(4-methoxyphenyl)-1,2,4-oxadiazol-5-yl)-N-((1-((4-methyltetrahydro-2H-pyran-4-yl)methyl)pyrrolidin-3-yl)methyl)piperidine-4-carboxamide] | + (+ >3 and <5)
C#Cc1ccc(CN2CCC(CNC(=O)C3CCN(c4nc(-c5ccc(OC)cc5)no4)CC3)C2)cc1 (stereo not drawn) [Compound 378, N-((1-(4-ethynylbenzyl)pyrrolidin-3-yl)methyl)-1-(3-(4-methoxyphenyl)-1,2,4-oxadiazol-5-yl)piperidine-4-carboxamide] | ++ (++ ≥5 and <6)
COc1ccc(-c2noc(N3CCC(C(=O)NCC4CCN(Cc5ccc(C)o5)C4)CC3)n2)cc1 (stereo not drawn) [Compound 379, 1-(3-(4-methoxyphenyl)-1,2,4-oxadiazol-5-yl)-N-((1-((5-methylfuran-2-yl)methyl)pyrrolidin-3-yl)methyl)piperidine-4-carboxamide] | ++ (++ ≥5 and <6)
COc1ccc(-c2noc(N3CCC(C(=O)NCC4CCN(Cc5cccnc5C)C4)CC3)n2)cc1 (stereo not drawn) [Compound 380, 1-(3-(4-methoxyphenyl)-1,2,4-oxadiazol-5-yl)-N-((1-((2-methylpyridin-3-yl)methyl)pyrrolidin-3-yl)methyl)piperidine-4-carboxamide] | ++ (++ ≥5 and <6)
COc1ccc(-c2noc(N3CCC(C(=O)NCC4CCN(Cc5sccc5C)C4)CC3)n2)cc1 (stereo not drawn) [Compound 381, 1-(3-(4-methoxyphenyl)-1,2,4-oxadiazol-5-yl)-N-((1-((3-methylthiophen-2-yl)methyl)pyrrolidin-3-yl)methyl)piperidine-4-carboxamide] | ++ (++ ≥5 and <6)
